The target in one data set is whole milk folate binder (Bos taurus, UniProt P02702). Briefly: competitive protein binding (CPB) radioassay for folates using pteroyltyrosine [125I] as radiolabel. Particulars: for dose response curves generated using pteroyltyrosine [125I] as label, folic acid versus N5-methyl THF: at high pH compared with lower pH; for behaviour in the folate competitive protein binding assay of radiolabel made from directly coupled p-aminobenzoyltyrosine product, compared with label from the hydrolyzed ester: pteroyltyrosine from 6-formylpterin + H-PABA-L-Tyr-OH (Example 1f(2)), radioiodinated, gel chromatography. As for the experimental part:
The use of the Centria® analytical system, Union Carbide Corporation, in this example, is meant to be illustrative and other methods, both automated and manual, obvious to those skilled in the clinical diagnostic art are also within the scope of this invention.
Briefly, the Centria® system is a tri-modular instrument in which reagents are pipetted on to a multiwell transfer disk and mixed centrifugally with standards or patients' samples. After a suitable incubation period, the components are separated by a centrifugal elution of the bound and free fractions and the bound fractions counted three at a time.
Folic acid and N^5 -methyltetrahydrofolic acid standards in the range 0-20 nanograms/milliliter were prepared in 0.05 M sodium borate, pH 9.3 containing 0.1% human serum albumin. The whole milk binder was prepared according to the method of Rothenberg et al., (3) and dissolved in sodium borate, pH 9.3 containing 0.1% human serum albumin.
(50 microliters, 20,000 cpm) plus 85 microliters of water with the limited number of binding sites contained in a 200 microliter solution of whole milk folate binder. The binding reactions may be shown as follows:
After a 10 minute incubation, the reaction mixture was centrifugally transferred onto DEAE Sephadex A-25 columns (0.75×4 in.) where separation of complexed folate from free folate was effected with 1.4 ml of elution buffer
(3) S. Rothenberg, M. DaCosta, and Z. Rosenberg, New Eng.
A gamma counter which counts three of the 36 positions at a time for one minute, so constructed that only the eluate bottom portion of the test tubes fits into the counter, was then used to count all samples. Sequential counting of the tubes thus required about 12 minutes. A small computer with printout capability then printed out the data after completion of the cycle.

A short description of data set [1]: storage stability of the radioiodinated product, judged by assay performance. As to conditions: ten-week period, stored in 50% aqueous propylene glycol solution. In kind it is physicochemical. The text has this: Radioiodination of biological compounds frequently leads to marked chemical instability and subsequent degradation of the radiolabel. This problem is often accentuated in the radiolabel when the materials to be radioiodinated are known to be sensitive to oxygen, light or extremes in pH, as is the case with folic acid and some derivatives.
The reaction mixture was applied to a 1×20 cm Sephadex G25, fine, (Pharmacia Fine Chemicals, Uppsala, Sweden) column hydrated with distilled water and equilibrated with 0.1 M potassium phosphate, pH 7.5. The column was eluted with 0.1 M potassium phosphate buffer and 3 ml fractions collected. The product "peak" fractions 32-34 were collected, diluted 1:1 with propylene glycol and stored below 0° C.

Another data set has as its system carboxypeptidase A. Briefly: enzymatic hydrolysis of pteroyltyrosine followed by UV spectrophotometry. It counts as biochemical. As to conditions: two hours, ambient temperature, Tris-HCl with zinc chloride pH 7.3. As for the experimental part:
Two millilters of a solution of pteroyltrosine ([…]) in 0.025 M Tris-HCl containing 2 mM zinc chloride, pH 7.3 were diluted to 10 ml with distilled water. A portion of this solution (2 ml) was placed in a 1 cm cuvette and in another was placed 2 ml of distilled water. To each of the cuvettes was added 50 μl of a solution of 100 μl carboxypeptidase A suspension (Aldrich chemical, lot (060637) diluted with 0.9 ml of 10% lithium chloride.
The time course of the reaction was followed spectrophotometrically (uv) over a period of two hours at ambient temperature. An increase and shift in max from 280 to 277 nm and a marked decrease in absorption at 220 nm was observed. Two isobestic points at 242 and 282 nm were visible.

Sequence of whole milk folate binder (P02702 20-234): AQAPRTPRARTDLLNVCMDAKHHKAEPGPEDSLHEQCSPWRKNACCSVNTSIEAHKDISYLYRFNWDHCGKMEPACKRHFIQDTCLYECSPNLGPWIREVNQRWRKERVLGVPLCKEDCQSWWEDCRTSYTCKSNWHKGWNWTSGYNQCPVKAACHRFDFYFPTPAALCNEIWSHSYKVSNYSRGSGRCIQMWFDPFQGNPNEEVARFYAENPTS

On to `CN1c2c(O)nc(N)nc2NCC1CNc1ccc(C(=O)N[C@@H](CCC(=O)O)C(=O)O)cc1` (stereo partly shown) [N^5 -methyl THF, N-5-methyltetrahydrofolic acid, reference compound], for which, at whole milk folate binder, the “dose response curves generated using pteroyltyrosine [125I] as label, folic acid versus N5-methyl THF” value is listed as “more nearly coincident than at lower pH”.
The same measure, in the same setting: the same measure for `Nc1nc2ncc(CNc3ccc(C(=O)N[C@@H](CCC(=O)O)C(=O)O)cc3)nc2c(=O)[nH]1` [folic acid]: “more nearly coincident than at lower pH”.
Regarding `Nc1nc(O)c2nc(CNc3ccc(C(=O)N[C@@H](Cc4ccc(O)c([125I])c4)C(=O)O)cc3)cnc2n1` [pteroyltyrosine [^125 I]], in data set [1], the “stability of radioiodinated product (assay performance on storage)” value is given as “no deterioration in assay performance”. Moreover, the “performance as radiolabel in CPB radioassay for folic acid” value on whole milk folate binder (folic acid concentration range 0-20 ng/ml) is given as “effective radiolabel”.
Take `Nc1nc2ncc(CNc3ccc(C(=O)N[C@@H](Cc4ccc(O)cc4)C(=O)O)cc3)nc2c(=O)[nH]1` [pteroyltyrosine, Pteroyl-L-Tyrosine]: the “behaviour in the folate competitive protein binding assay of radiolabel made from directly coupled p-aminobenzoyltyrosine product, compared with label from the hydrolyzed ester” value was “functioned identically” on whole milk folate binder and “identically” on whole milk folate binder (listed as Pt-L-Tyr-OH). For the same compound, the “UV spectral change on treatment with carboxypeptidase A (hydrolysis)” value in the data set on carboxypeptidase A is “final spectrum was very similar to that of pteroic acid”.

For the origin of these results see patent publication US4337339A, “Process for preparation of folic acid derivatives” (Baker Instruments Corp., priority 1979, dated 1982).
